Peptide text beside a SMILES is read from it.
How the values were obtained:
[1] = molecular target: T1, Solute carrier organic anion transporter family member 1A1 (Rattus norvegicus, UniProt P46720); assay: TP_TRANSPORTER: uptake in Oatp1-expressing COS-7 cells; assay type: functional, cell-based; settings: monkey
T1 sequence (P46720 whole entry): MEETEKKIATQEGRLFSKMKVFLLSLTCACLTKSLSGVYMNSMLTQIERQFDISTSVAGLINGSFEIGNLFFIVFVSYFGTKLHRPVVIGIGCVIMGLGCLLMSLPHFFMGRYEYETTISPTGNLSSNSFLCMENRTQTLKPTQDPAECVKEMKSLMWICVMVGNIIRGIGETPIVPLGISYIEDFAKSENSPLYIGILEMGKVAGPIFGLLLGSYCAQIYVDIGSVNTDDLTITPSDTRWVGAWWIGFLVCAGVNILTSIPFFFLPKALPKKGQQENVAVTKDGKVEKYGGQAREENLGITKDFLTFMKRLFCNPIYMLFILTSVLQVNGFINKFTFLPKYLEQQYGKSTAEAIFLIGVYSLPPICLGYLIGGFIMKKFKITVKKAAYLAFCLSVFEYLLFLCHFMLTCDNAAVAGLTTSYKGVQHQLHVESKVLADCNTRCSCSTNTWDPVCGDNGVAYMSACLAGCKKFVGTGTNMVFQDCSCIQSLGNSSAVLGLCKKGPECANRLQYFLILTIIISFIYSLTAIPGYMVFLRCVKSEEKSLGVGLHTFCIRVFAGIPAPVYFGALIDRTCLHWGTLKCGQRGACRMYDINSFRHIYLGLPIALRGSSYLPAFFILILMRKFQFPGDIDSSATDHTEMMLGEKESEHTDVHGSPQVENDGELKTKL

[2] = molecular target: T2, Hepatic sodium/bile acid cotransporter (Rattus norvegicus, UniProt P26435); assay: TP_TRANSPORTER: uptake in Ntcp-expressing COS-7 cells; assay type: functional, cell-based; settings: monkey
T2 sequence (P26435 whole entry): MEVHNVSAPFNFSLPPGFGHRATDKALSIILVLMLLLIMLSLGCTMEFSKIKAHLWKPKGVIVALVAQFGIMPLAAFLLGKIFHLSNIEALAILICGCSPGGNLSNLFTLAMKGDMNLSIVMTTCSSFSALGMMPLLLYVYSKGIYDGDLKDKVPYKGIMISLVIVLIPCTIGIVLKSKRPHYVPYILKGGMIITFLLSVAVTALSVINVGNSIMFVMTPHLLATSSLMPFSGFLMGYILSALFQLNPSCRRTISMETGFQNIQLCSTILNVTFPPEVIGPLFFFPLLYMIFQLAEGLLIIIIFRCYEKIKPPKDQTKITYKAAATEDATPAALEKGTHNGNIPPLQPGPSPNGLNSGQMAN

Activity [1]: is not a substrate [-]
Activity [2]: is not a substrate [-]
Compound: CC(C)C[C@@H]1NC(=O)[C@@H](C(C)C)NC(=O)[C@@H]2CCCN2C(=O)[C@@H](CC(=O)O)NC(=O)[C@@H](Cc2c[nH]c3ccccc23)NC1=O [BQ-123] (HELM PEPTIDE1{L.[dW].[dD].P.[dV]}$PEPTIDE1,PEPTIDE1,1:R1-5:R2$$$V2.0)

From ChEMBL document CHEMBL2073924, “Carrier-mediated hepatic uptake of peptidic endothelin antagonists in rats” (J Pharmacol Exp Ther, 1999)
